Converted amounts (≈) assume the structure as drawn. Structures can show the parent of a compound that is named as a salt. Where two headings read alike, the source gives them in different places.
Key:
Assay type in all cases: cell-based
[1] = system: Bacillus anthracis, Sterne 34F2; assay: microbe, parasite or virus in culture; details: STERNE34F2, read-out: MIC B.a.
[2] = system: Bacillus subtilis (ATCC 23857); assay: MIC determination, microbroth dilution; details: ATCC23857; Bacillus subtilis (ATCC 23857); read-out: MIC B.s.
[3] = system: Enterococcus faecalis (ATCC 33186); assay: MIC determination, microbroth dilution; details: ATCC33186; Enterococcus faecalis (ATCC 33186); read-out: MIC E.f.
[4] = system: Staphylococcus aureus (ATCC 29213); assay: MIC determination, microbroth dilution; details: ATCC29213; Staphylococcus aureus (ATCC 29213); read-out: MIC S.a.
[5] = system: MRSA, Staphylococcus aureus (NRS70); assay: MIC determination, microbroth dilution; details: Staphylococcus aureus (NRS70); read-out: MIC MRSA
[6] = system: Streptococcus pneumoniae (R6); assay: MIC determination, microbroth dilution
[7] = system: Streptococcus pyogenes (ATCC 700294); assay: MIC determination, microbroth dilution; details: ATCC700294; Streptococcus pyogenes (ATCC 700294); read-out: MIC S. py.
[8] = system: M. tuberculosis clinical isolates; assay: microbe, parasite or virus in culture; details: Mycobacterium tuberculosis, H37RV, read-out: MIC H37Rv
[9] = system: Streptococcus pneumoniae clinical isolates representing several serotypes; assay: MIC determination, Streptococcus pneumoniae panel of clinical isolates (Table 7); details: Streptococcus pneumoniae
[10] = system: acinetobacter baumannii (ATCC 19606); assay: MIC determination, microbroth dilution; details: ATCC19606
[11] = system: Burkholderia cepacia (ATCC 25416); assay: MIC determination, microbroth dilution; details: Burkholderia cepacia, ATCC25416, read-out: MIC B.c., Burkholderia cepacia (ATCC 25416)
[12] = system: Escherichia coli (ATCC 700926); assay: MIC determination, microbroth dilution
Protocol: MICs were determined using the microbroth dilution method according to Clinical Laboratory Standards Institute (CLSI; National, C. F. C. L. S., Methods for Dilution Antimicrobial Susceptibility Tests for Bacteria Grow aerobically-Seventh Edition: Approved Standard M7-A7, CLSI, Wayne, Pa., USA, 2008) and were read by visual inspection. Two fold serial dilutions of antibiotic in 100 μL of the appropriate broth media were first prepared in 96-well round bottom microtiter plates (Nalge Nunc International, Rochester, N.Y., USA). An equivalent volume (100 μL) of bacterial broth inocula containing approximately 10^5 bacterial cfu/mL was added to each well to give final concentrations of drug starting at 200 μg/mL and the plates were incubated aerobically at 37° C. M. tuberculosis microtiter plates were incubated for 7 days and all other strains were incubated overnight. After incubations, in all cases the MIC was recorded as the lowest concentration of drug that prevented bacterial growth.

E. coli K12 ΔtolC = assay: microbe, parasite or virus in culture; details: Escherichia coli, read-out: MIC E.c. Δtolc
[13] = system: Klebsiella pneumoniae (ATCC 33495); assay: MIC determination, microbroth dilution; details: ATCC33495
[14] = system: Pseudomonas aeruginosa (PA01); assay: MIC determination, microbroth dilution
[15] = system: Proteus mirabilis (ATCC 25933); assay: MIC determination, microbroth dilution; details: ATCC25933
[16] = system: Proteus vulgaris (ATCC 33420); assay: MIC determination, microbroth dilution; details: ATCC33420
[17] = system: Stenotrophomonas maltophilia (ATCC 13637); assay: MIC determination, microbroth dilution; details: ATCC13637; Stenotrophomonas maltophilia (ATCC 13637); read-out: MIC S.m.
[18] = Streptococcus pneumoniae (R6), read-out: MIC S. pn.
[19] = ATCC700926, Escherichia coli (ATCC 700926), read-out: MIC E.c.

| SMILES | MIC [1] [µg/mL] | MIC [2] [µg/mL] | MIC [3] [µg/mL] | MIC [4] [µg/mL] | MIC [5] [µg/mL] | MIC [6, 18] [µg/mL] | MIC [7] [µg/mL] | MIC [8] [µg/mL] | also measured |
| --- | --- | --- | --- | --- | --- | --- | --- | --- | --- |
| CN[C@@H]1[C@H](O)[C@H](NC)C2O[C@]3(O)C(OC2[C@H]1O)O[C@H](C)C[C@@]3(O)CNCc1ccc2c(c1)OCO2 (stereo partly shown) [compound 36] | > 200 | 12.5 (≈ 25.1 µM) | 100 (≈ 201 µM) | 100 (≈ 201 µM) | > 200 | 25 (≈ 50.2 µM) | 25 (≈ 50.2 µM) | 50 (≈ 100 µM) | – |
| CN[C@@H]1[C@H](O)[C@H](NC)[C@H]2O[C@]3(O)[C@H](O[C@@H]2[C@H]1O)O[C@H](C)CC3(O)CN (stereo partly shown) [mSPC, 3′-aminomethyl-3′-hydroxy spectinomycin, reference compound] | – | – | – | – | – | – | – | – | MIC ([6]; Streptococcus pneumoniae, S. pneumoniae R6, Drug Susceptible, read-out: MIC R6): 50 µg/mL (≈ 138 µM); MIC ([9]; BAA1407, S. pneumoniae BAA-1407, Macrolide Resistant, read-out: MIC BAA-1407): 200 µg/mL (≈ 550 µM); MIC ([9]; S. pneumoniae A66.1x, Drug Susceptible, read-out: MIC A66.1x): 50 µg/mL (≈ 138 µM); MIC ([9]; S. pneumoniae BHN97x, Drug Susceptible, read-out: MIC BHN97x): 50 µg/mL (≈ 138 µM); MIC ([9]; S. pneumoniae D39X, Drug Susceptible, read-out: MIC D39X): 100 µg/mL (≈ 275 µM); MIC ([9]; S. pneumoniae Daw7, PenG Resistant, read-out: MIC Daw7): 100 µg/mL (≈ 275 µM); MIC ([9]; S. pneumoniae Daw8, PenG Resistant, read-out: MIC Daw8): 100 µg/mL (≈ 275 µM); MIC ([9]; S. pneumoniae Daw9, PenG Resistant, read-out: MIC Daw9): 50 µg/mL (≈ 138 µM); MIC ([9]; S. pneumoniae Daw62, PenG Resistant, read-out: MIC Daw62): 100 µg/mL (≈ 275 µM); MIC ([9]; S. pneumoniae Daw64, PenG Resistant, read-out: MIC Daw64): 100 µg/mL (≈ 275 µM); MIC ([9]; S. pneumoniae OVA6, Macrolide Resistant, read-out: MIC OVA6): 50 µg/mL (≈ 138 µM); MIC ([9]; S. pneumoniae T4X, Drug Susceptible, read-out: MIC T4X): 50 µg/mL (≈ 138 µM) |
| CN[C@@H]1[C@H](O)[C@H](NC)C2O[C@]3(O)C(OC2[C@H]1O)O[C@H](C)C[C@@]3(O)CNCc1ccc(C)o1 (stereo partly shown) [compound 46] | > 200 | 50 (≈ 109 µM) | 100 (≈ 219 µM) | 50 (≈ 109 µM) | > 200 | 12.5 (≈ 27.3 µM) | 12.5 (≈ 27.3 µM) | 25 (≈ 54.6 µM) | – |
| CN[C@@H]1[C@H](O)[C@H](NC)C2O[C@]3(O)C(OC2[C@H]1O)O[C@H](C)C[C@@]3(O)CNCc1ccc(Cc2ccccc2)cc1 (stereo partly shown) [compound 44] | > 200 | 25 (≈ 46 µM) | 25 (≈ 46 µM) | 50 (≈ 92 µM) | 25 (≈ 46 µM) | 6.25 (≈ 11.5 µM) | 3.13 (≈ 5.76 µM) | 100 (≈ 184 µM) | – |
| CN[C@@H]1[C@H](O)[C@H](NC)C2O[C@]3(O)C(OC2[C@H]1O)O[C@H](C)C[C@@]3(O)CNCc1cn(C)c2ccccc12 (stereo partly shown) [compound 37] | > 200 | 12.5 (≈ 24.7 µM) | 50 (≈ 98.7 µM) | 50 (≈ 98.7 µM) | 200 (≈ 395 µM) | 25 (≈ 49.3 µM) | 12.5 (≈ 24.7 µM) | 50 (≈ 98.7 µM) | – |
| CN[C@@H]1[C@H](O)[C@H](NC)[C@H]2O[C@]3(O)[C@H](O[C@@H]2[C@H]1O)O[C@H](C)C[C@@]3(O)CNCc1cncnc1 [compound 66, 3′-(R)-3′-[(pyrimidin-5-ylmethyl)aminomethyl]dihydrospectinomycin tetrahydrobromide] | 100 | 200 | – | > 200 | > 200 | 0.8 | 100 | – | MIC [10]: > 200 µg/mL; MIC [11]: > 200 µg/mL; MIC ([12]; Escherichia coli, ATCC700926, read-out: MIC E.c.): 50 µg/mL; MIC (E. coli K12 ΔtolC): 25 to 50 µg/mL; MIC [13]: 100 to 200 µg/mL; MIC [14]: > 200 µg/mL; MIC [15]: > 200 µg/mL; MIC [16]: > 200 µg/mL; MIC [17]: 100 µg/mL |
| CN[C@@H]1[C@H](O)[C@H](NC)[C@H]2O[C@]3(O)[C@H](O[C@@H]2[C@H]1O)O[C@H](C)C[C@@]3(O)CNCc1cnccn1 [compound 67, 3′-(R)-3′-[(pyrazin-2-ylmethyl)aminomethyl]dihydrospectinomycin tetrahydrobromide] | 200 | 100 | – | > 200 | > 200 | 6.3 | 100 | – | MIC [10]: > 200 µg/mL; MIC [11]: > 200 µg/mL; MIC [12, 19]: 50 to 100 µg/mL; MIC (E. coli K12 ΔtolC): 25 to 50 µg/mL; MIC [13]: 100 µg/mL; MIC [14]: > 200 µg/mL; MIC [15]: > 200 µg/mL; MIC [16]: > 200 µg/mL; MIC [17]: 100 µg/mL |
| CN[C@@H]1[C@H](O)[C@H](NC)C2O[C@]3(O)C(OC2[C@H]1O)O[C@H](C)C[C@@]3(O)CNCC(C)c1ccccc1 (stereo partly shown) [compound 49] | > 200 | 12.5 (≈ 26 µM) | 6.25 (≈ 13 µM) | 50 (≈ 104 µM) | 12.5 (≈ 26 µM) | 12.5 (≈ 26 µM) | 12.5 (≈ 26 µM) | 100 (≈ 208 µM) | – |
| CN[C@@H]1[C@H](O)[C@H](NC)C2O[C@]3(O)C(OC2[C@H]1O)O[C@H](C)C[C@@]3(O)CNCc1ccc(CO)o1 (stereo partly shown) [compound 42] | > 200 | 50 (≈ 106 µM) | 200 (≈ 422 µM) | 200 (≈ 422 µM) | > 200 | 50 (≈ 106 µM) | 50 (≈ 106 µM) | 25 (≈ 52.8 µM) | – |
| CN[C@@H]1[C@H](O)[C@H](NC)C2O[C@]3(O)C(OC2[C@H]1O)O[C@H](C)C[C@@]3(O)CNCc1cccn1C (stereo partly shown) [compound 48] | > 200 | 12.5 (≈ 27.4 µM) | > 200 | 200 (≈ 438 µM) | 200 (≈ 438 µM) | 100 (≈ 219 µM) | 200 (≈ 438 µM) | 200 (≈ 438 µM) | – |
| CN[C@@H]1[C@H](O)[C@H](NC)[C@H]2O[C@]3(O)[C@H](O[C@@H]2[C@H]1O)O[C@H](C)C[C@@]3(O)CNCc1ccc(S(C)(=O)=O)cc1 [compound 69, 3′-(R)-3′-[(4-(methylsulfonyl)benzylaminomethyl)]dihydrospectino-mycin trihydrobromide] | > 200 | > 200 | – | > 200 | > 200 | 100 | 100 | – | MIC [10]: > 200 µg/mL; MIC [11]: > 200 µg/mL; MIC [12, 19]: 50 to 100 µg/mL; MIC (E. coli K12 ΔtolC): 12.5 to 25 µg/mL; MIC [13]: > 200 µg/mL; MIC [14]: > 200 µg/mL; MIC [15]: > 200 µg/mL; MIC [16]: > 200 µg/mL; MIC [17]: > 200 µg/mL |
| CN[C@@H]1[C@H](O)[C@H](NC)[C@H]2O[C@]3(O)[C@H](O[C@@H]2[C@H]1O)O[C@H](C)C[C@@]3(O)CNCc1ccc(SC)cc1 [compound 68, 3′-(R)-3′-[(4-(methylthio)benzylaminomethyl)]dihydrospectinomycin trihydrobromide] | 25 | 25 | – | 25 | 50 | 1.6 | 3.1 | – | MIC [10]: > 200 µg/mL; MIC [11]: > 200 µg/mL; MIC [12, 19]: 50 µg/mL; MIC (E. coli K12 ΔtolC): 12.5 µg/mL; MIC [13]: 100 to 200 µg/mL; MIC [14]: 200 µg/mL; MIC [15]: > 200 µg/mL; MIC [16]: > 200 µg/mL; MIC [17]: 25 µg/mL |
| CN[C@@H]1[C@H](O)[C@H](NC)C2O[C@]3(O)C(OC2[C@H]1O)O[C@H](C)C[C@@]3(O)CNCc1cccc(C(=O)OC)c1 (stereo partly shown) [compound 41] | > 200 | 50 (≈ 97.7 µM) | 200 (≈ 391 µM) | 200 (≈ 391 µM) | 200 (≈ 391 µM) | 50 (≈ 97.7 µM) | 50 (≈ 97.7 µM) | 50 (≈ 97.7 µM) | – |
| CN[C@@H]1[C@H](O)[C@H](NC)C2O[C@]3(O)C(OC2[C@H]1O)O[C@H](C)C[C@@]3(O)CNCc1ccc(OC)c2c1CCCC2 (stereo partly shown) [compound 45] | > 200 | 50 (≈ 93 µM) | 50 (≈ 93 µM) | 100 (≈ 186 µM) | 200 (≈ 372 µM) | 25 (≈ 46.5 µM) | 25 (≈ 46.5 µM) | 200 (≈ 372 µM) | – |
| CN[C@@H]1[C@H](O)[C@H](NC)C2O[C@]3(O)C(OC2[C@H]1O)O[C@H](C)C[C@@]3(O)CNCc1cccc(C(F)(F)F)c1 (stereo partly shown) [compound 50] | > 200 | 12.5 (≈ 24 µM) | 25 (≈ 47.9 µM) | 50 (≈ 95.9 µM) | 50 (≈ 95.9 µM) | 3.13 (≈ 6 µM) | 1.56 (≈ 2.99 µM) | – | – |

— patent US10266544B2, “Aryl substituted aminomethyl spectinomycin analogs as antibacterial agents” (ST. JUDE CHILDREN'S RESEARCH HOSPITAL, INC., priority 2013, dated 2019)
